{"source": "patent US20250170110A1", "about": "“LYMPHATIC TARGETED ANTI-COAGULANT FOR THE PREVENTION OF LYMPHATIC THROMBOSIS” (THE TRUSTEES OF THE UNIVERSITY OF PENNSYLVANIA, priority 2022, published 2025)", "test_system": "gut lymphatic clotting", "assay": "lymphatic clots in mice with induced deletion of lymphatic endothelial thrombomodulin (THBD)", "assay_type": "in vivo", "conditions": "oral warfarin in water, 3 weeks after induction", "description": "FIGS. 7A-7C show oral delivery of warfarin prevents lymphatic clots in mouse model of lymphothrombosis. […] P-values are indicated by asterisks as follows: ***p<0.001.\nHowever, dosing with existing antithrombotic drugs will confer systemic anticoagulation, with established significant risks of bleeding throughout the body, including in the gut and brain. […] Therefore, there is a clear need for a functional antithrombotic drug that can be delivered and act preferentially to the gut lymphatics at a therapeutic dose. In addition, the volume of lymphatic fluid in the gut is much less than the volume of blood in the body, which means that a therapeutic dose of drug directly to the gut lymphatics will be massively diluted once it reaches the blood stream to well below therapeutic levels, thereby preventing systemic anticoagulation and inappropriate bleeding."}
{"molecule": "CC(=O)CC(c1ccccc1)c1c(O)c2ccccc2oc1=O", "note": "(stereo not shown) [warfarin]", "values": [{"measurement": "lymphatic clotting (fibrin positive lymphatic vessels)", "value": "prevented lymphatic clotting"}]}
